Results from patent US10548317B2, “Pesticidally active pyrazole derivatives” (SYNGENTA PARTICIPATIONS AG, priority 2015, dated 2020).

Tests used:
Type in all cases: in vivo
Tetranychus urticae = Tetranychus urticae (two-spotted spider mite) bean leaf disc test; details: foliar, 192 h, application rate of 200 ppm, bean leaf discs, mixed population (mobile stages), 8 days after infestation
Procedure: Tetranychus urticae (Two-Spotted Spider Mite):
Bean leaf discs on agar in 24-well microtiter plates were sprayed with aqueous test solutions prepared from 10'000 ppm DMSO stock solutions. After drying the leaf discs were infested with a mite population of mixed ages. The samples were assessed for mortality on mixed population (mobile stages) 8 days after infestation.

Diabrotica balteata = Diabrotica balteata (corn root worm) maize sprout test; details: 96 h, application rate of 200 ppm, maize sprouts, L2 larvae, 4 days after infestation, read-out: effect in at least one of the two categories (mortality or growth inhibition)
Procedure: Diabrotica balteata, (Corn Root Worm)
Maize sprouts, placed on an agar layer in 24-well microtiter plates were treated with aqueous test solutions prepared from 10'000 ppm DMSO stock solutions by spraying. After drying, the plates were infested with L2 larvae (6 to 10 per well). The samples were assessed for mortality and growth inhibition in comparison to untreated samples 4 days after infestation. The following compounds gave an effect of at least 80% in at least one of the two categories (mortality or growth inhibition) at an application rate of 200 ppm: 1, 3, 4, 5, 6, 7, 8, 9, 10, 11, 12, 14, 15, 16, 17, 18, 19, 20, 21, 22, 23, 24, 25, 26, 27, 28, 29, 30, 31, 32, 33, 35, 36, 37, 38, 39, 40, 41, 42, 43, 44, 45, 48, 50, 51, 52, 53, 54 and 55.

Spodoptera littoralis = Spodoptera littoralis (Egyptian cotton leaf worm) leaf disc spray test; details: foliar, 72 h, application rate of 200 ppm, cotton leaf discs, L1 larvae, 3 days after infestation, read-out: control (at least one of mortality, anti-feedant effect, growth inhibition)
Procedure: Spodoptera littoralis (Egyptian Cotton Leaf Worm)
Cotton leaf discs were placed on agar in 24-well microtiter plates and sprayed with aqueous test solutions prepared from 10'000 ppm DMSO stock solutions. After drying the leaf discs were infested with five L1 larvae. The samples were assessed for mortality, anti-feedant effect, and growth inhibition in comparison to untreated samples 3 days after infestation. Control of Spodoptera littoralis by a test sample is when at least one of mortality, anti-feedant effect, and growth inhibition is higher than the untreated sample.

Plutella xylostella = Plutella xylostella (diamond back moth) artificial diet test; details: 120 h, application rate of 200 ppm, L2 larvae, 5 days after infestation, read-out: effect in at least one of the two categories (mortality or growth inhibition)
Procedure: Plutella xylostella (Diamond Back Moth):
24-well microtiter plates with artificial diet were treated with aqueous test solutions prepared from 10'000 ppm DMSO stock solutions by pipetting. After drying, the plates were infested with L2 larvae (10 to 15 per well). The samples were assessed for mortality and growth inhibition in comparison to untreated samples 5 days after infestation. The following compounds gave an effect of at least 80% in at least one of the two categories (mortality or growth inhibition) at an application rate of 200 ppm: 1, 2, 3, 4, 5, 6, 7, 8, 9, 10, 11, 12, 13, 14, 15, 16, 17, 18, 19, 20, 21, 22, 23, 24, 25, 26, 27, 28, 29, 30, 31, 32, 33, 35, 36, 37, 38, 39, 40, 41, 42, 43, 44, 45, 46, 47, 48, 50, 51, 52, 53, 54 and 55.

Thrips tabaci = Thrips tabaci (onion thrips) sunflower leaf disc test; details: foliar, 144 h, application rate of 200 ppm, sunflower leaf discs, mixed ages, 6 days after infestation
Procedure: Thrips tabaci (Onion thrips):
Sunflower leaf discs were placed on agar in 24-well microtiter plates and sprayed with aqueous test solutions prepared from 10'000 ppm DMSO stock solutions. After drying the leaf discs were infested with a thrips population of mixed ages. The samples were assessed for mortality 6 days after infestation.

Cn1nc(C(F)(F)C(F)(F)F)c(C(F)(F)F)c1-n1cc(-c2cc(Cl)c(C(=O)NC3CC3)s2)cn1 [Compound 1, 3-chloro-N-cyclopropyl-5-[1-[2-methyl-5-(1,1,2,2,2-pentafluoroethyl)-4-(trifluoromethyl)pyrazol-3-yl]pyrazol-4-yl]thiophene-2-carboxamide]
≥ 80%: mortality at 200 ppm (Tetranychus urticae) | percent effect (mortality or growth inhibition) at 200 ppm (Diabrotica balteata) | control (mortality, anti-feedant effect or growth inhibition) at 200 ppm (Spodoptera littoralis) | percent effect (mortality or growth inhibition) at 200 ppm (Plutella xylostella) | mortality at 200 ppm (Thrips tabaci)

Cn1nc(C(F)(F)C(F)(F)F)c(C(F)(F)F)c1-n1cc(-c2cc(Cl)c(C(=O)NC3(C#N)CC3)s2)cn1 [Compound 2, 3-chloro-N-(1-cyanocyclopropyl)-5-[1-[2-methyl-5-(1,1,2,2,2-pentafluoroethyl)-4-(trifluoromethyl)pyrazol-3-yl]pyrazol-4-yl]thiophene-2-carboxamide]
≥ 80%: control (mortality, anti-feedant effect or growth inhibition) at 200 ppm (Spodoptera littoralis) | percent effect (mortality or growth inhibition) at 200 ppm (Plutella xylostella)

Cn1nc(C(F)(F)C(F)(F)F)c(C(F)(F)F)c1-n1cc(-c2nc(C(=O)NC3(C#N)CC3)c(Cl)s2)cn1 [Compound 7, 5-chloro-N-(1-cyanocyclopropyl)-2-[1-[2-methyl-5-(1,1,2,2,2-pentafluoroethyl)-4-(trifluoromethyl)pyrazol-3-yl]pyrazol-4-yl]thiazole-4-carboxamide]
≥ 80%: mortality at 200 ppm (Tetranychus urticae) | percent effect (mortality or growth inhibition) at 200 ppm (Diabrotica balteata) | control (mortality, anti-feedant effect or growth inhibition) at 200 ppm (Spodoptera littoralis) | percent effect (mortality or growth inhibition) at 200 ppm (Plutella xylostella)

Cn1nc(C(F)(F)C(F)(F)F)c(C(F)(F)F)c1-n1cc(-c2nc(C(=O)NC3CC3)c(Cl)s2)cn1 [Compound 8, 5-chloro-N-cyclopropyl-2-[1-[2-methyl-5-(1,1,2,2,2-pentafluoroethyl)-4-(trifluoromethyl)pyrazol-3-yl]pyrazol-4-yl]thiazole-4-carboxamide]
≥ 80%: percent effect (mortality or growth inhibition) at 200 ppm (Diabrotica balteata) | control (mortality, anti-feedant effect or growth inhibition) at 200 ppm (Spodoptera littoralis) | percent effect (mortality or growth inhibition) at 200 ppm (Plutella xylostella)

Cn1nc(C(F)(F)C(F)(F)F)c(C(F)(F)F)c1-n1cc(-n2cc(C(=O)NC3(C#N)CC3)c(C(F)(F)F)n2)cn1 [Compound 11]
≥ 80%: mortality at 200 ppm (Tetranychus urticae) | percent effect (mortality or growth inhibition) at 200 ppm (Diabrotica balteata) | control (mortality, anti-feedant effect or growth inhibition) at 200 ppm (Spodoptera littoralis) | percent effect (mortality or growth inhibition) at 200 ppm (Plutella xylostella) | mortality at 200 ppm (Thrips tabaci)

C=C(C)CNC(=O)c1cc(-c2cnn(-c3c(C(F)(F)F)c(C(F)(F)C(F)(F)F)nn3C)c2)sc1Cl [Compound 13]
≥ 80%: mortality at 200 ppm (Tetranychus urticae) | control (mortality, anti-feedant effect or growth inhibition) at 200 ppm (Spodoptera littoralis) | percent effect (mortality or growth inhibition) at 200 ppm (Plutella xylostella)

Cn1nc(C(F)(F)C(F)(F)F)c(C(F)(F)F)c1-n1cc(-c2cc(C(=O)NCc3ccccc3)c(Cl)s2)cn1 [Compound 19]
≥ 80%: mortality at 200 ppm (Tetranychus urticae) | percent effect (mortality or growth inhibition) at 200 ppm (Diabrotica balteata) | control (mortality, anti-feedant effect or growth inhibition) at 200 ppm (Spodoptera littoralis) | percent effect (mortality or growth inhibition) at 200 ppm (Plutella xylostella)

Cn1nc(C(F)(F)C(F)(F)F)c(C(F)(F)F)c1-n1cc(-c2cc(C(=O)Nc3ccncc3)c(Cl)s2)cn1 [Compound 21]
≥ 80%: percent effect (mortality or growth inhibition) at 200 ppm (Diabrotica balteata) | control (mortality, anti-feedant effect or growth inhibition) at 200 ppm (Spodoptera littoralis) | percent effect (mortality or growth inhibition) at 200 ppm (Plutella xylostella) | mortality at 200 ppm (Thrips tabaci)

Cn1nc(C(F)(F)C(F)(F)F)c(C(F)(F)F)c1-n1cc(-c2cc(C(=O)NC3(C(F)(F)F)CC3)c(Cl)s2)cn1 [Compound 22]
≥ 80%: mortality at 200 ppm (Tetranychus urticae) | percent effect (mortality or growth inhibition) at 200 ppm (Diabrotica balteata) | control (mortality, anti-feedant effect or growth inhibition) at 200 ppm (Spodoptera littoralis) | percent effect (mortality or growth inhibition) at 200 ppm (Plutella xylostella) | mortality at 200 ppm (Thrips tabaci)

CC(C)CNC(=O)c1cc(-c2cnn(-c3c(C(F)(F)F)c(C(F)(F)C(F)(F)F)nn3C)c2)sc1Cl [Compound 23]
≥ 80%: mortality at 200 ppm (Tetranychus urticae) | percent effect (mortality or growth inhibition) at 200 ppm (Diabrotica balteata) | control (mortality, anti-feedant effect or growth inhibition) at 200 ppm (Spodoptera littoralis) | percent effect (mortality or growth inhibition) at 200 ppm (Plutella xylostella)

Cn1nc(C(F)(F)C(F)(F)F)c(C(F)(F)F)c1-n1cc(-c2cc(C(=O)Nc3ccc(Cl)cc3)c(Cl)s2)cn1 [Compound 25]
≥ 80%: percent effect (mortality or growth inhibition) at 200 ppm (Diabrotica balteata) | percent effect (mortality or growth inhibition) at 200 ppm (Plutella xylostella)

Cn1nc(C(F)(F)C(F)(F)F)c(C(F)(F)F)c1-n1cc(-c2cc(C(=O)NCc3ccccn3)c(Cl)s2)cn1 [Compound 26]
≥ 80%: mortality at 200 ppm (Tetranychus urticae) | percent effect (mortality or growth inhibition) at 200 ppm (Diabrotica balteata) | control (mortality, anti-feedant effect or growth inhibition) at 200 ppm (Spodoptera littoralis) | percent effect (mortality or growth inhibition) at 200 ppm (Plutella xylostella)

Cn1nc(C(F)(F)C(F)(F)F)c(C(F)(F)F)c1-n1cc(-c2cc(C(=O)NCCC(F)(F)F)c(Cl)s2)cn1 [Compound 30]
≥ 80%: mortality at 200 ppm (Tetranychus urticae) | percent effect (mortality or growth inhibition) at 200 ppm (Diabrotica balteata) | control (mortality, anti-feedant effect or growth inhibition) at 200 ppm (Spodoptera littoralis) | percent effect (mortality or growth inhibition) at 200 ppm (Plutella xylostella) | mortality at 200 ppm (Thrips tabaci)

Cn1nc(C(F)(F)C(F)(F)F)c(OC(F)F)c1-n1cc(-c2cc(C(=O)NC3(C#N)CC3)cs2)cn1 [Compound 39]
≥ 80%: mortality at 200 ppm (Tetranychus urticae) | percent effect (mortality or growth inhibition) at 200 ppm (Diabrotica balteata) | control (mortality, anti-feedant effect or growth inhibition) at 200 ppm (Spodoptera littoralis) | percent effect (mortality or growth inhibition) at 200 ppm (Plutella xylostella)

Cn1nc(C(F)(F)C(F)(F)F)c(C(F)(F)F)c1-n1cc(-c2csc(C(=O)NC3CC3)n2)cn1 [Compound 40]
≥ 80%: percent effect (mortality or growth inhibition) at 200 ppm (Diabrotica balteata) | control (mortality, anti-feedant effect or growth inhibition) at 200 ppm (Spodoptera littoralis) | percent effect (mortality or growth inhibition) at 200 ppm (Plutella xylostella)

Cn1nc(C(F)(F)C(F)(F)F)c(C(F)(F)F)c1-n1cc(-c2csc(C(=O)NC3(C#N)CC3)n2)cn1 [Compound 41]
≥ 80%: percent effect (mortality or growth inhibition) at 200 ppm (Diabrotica balteata) | control (mortality, anti-feedant effect or growth inhibition) at 200 ppm (Spodoptera littoralis) | percent effect (mortality or growth inhibition) at 200 ppm (Plutella xylostella)

Cn1nc(C(F)(F)C(F)(F)F)c(C(F)(F)F)c1-n1cc(-n2cc(C(=O)NC3(C#N)CC3)c(C(F)(F)F)c2)cn1 [Compound 44]
≥ 80%: percent effect (mortality or growth inhibition) at 200 ppm (Diabrotica balteata) | control (mortality, anti-feedant effect or growth inhibition) at 200 ppm (Spodoptera littoralis) | percent effect (mortality or growth inhibition) at 200 ppm (Plutella xylostella) | mortality at 200 ppm (Thrips tabaci)

Cc1nn(-c2cnn(-c3c(C(F)(F)F)c(C(F)(F)C(F)(F)F)nn3C)c2)cc1C(=O)NC1CC1 [Compound 46]
≥ 80%: control (mortality, anti-feedant effect or growth inhibition) at 200 ppm (Spodoptera littoralis) | percent effect (mortality or growth inhibition) at 200 ppm (Plutella xylostella)

Cn1nc(C(F)(F)C(F)(F)F)c(C(F)(F)F)c1-n1cc(-c2csc(C(=O)NC3(C#N)CC3)c2)cn1 [Compound 51]
≥ 80%: percent effect (mortality or growth inhibition) at 200 ppm (Diabrotica balteata) | control (mortality, anti-feedant effect or growth inhibition) at 200 ppm (Spodoptera littoralis) | percent effect (mortality or growth inhibition) at 200 ppm (Plutella xylostella)
